What was measured:
[1] = test system: crabgrass, large; assay: Test A preemergence; type: in vivo, Digitaria sanguinalis; conditions: preemergence
Method in brief: (§1)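 Both timings tested concurrently in loam/sand soil: preemergence by directed soil spray, postemergence on plants of 2–10 cm at the one- to two-leaf stage. Greenhouse holding period was approximately 10 days before visual injury assessment (0–100, 0 = no effect).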

[2] = test system: foxtail, giant; assay: Test A preemergence; type: in vivo, Setaria faberii; conditions: preemergence
Method in brief: as §1

[3] = test system: pigweed; assay: Test A preemergence; type: in vivo, Amaranthus retroflexus; conditions: preemergence
Method in brief: as §1

[4] = test system: velvetleaf; assay: Test A preemergence; type: in vivo, Abutilon theophrasti; conditions: preemergence
Method in brief: as §1

[5] = test system: wheat; assay: Test A preemergence; type: in vivo, Triticum aestivum; conditions: preemergence
Method in brief: as §1

[6] = test system: corn; assay: Test A preemergence; type: in vivo, Zea mays; conditions: preemergence
Method in brief: as §1

[7] = test system: barnyardgrass; assay: Test A postemergence; type: in vivo, Echinochloa crus-galli
Method in brief: as §1

[8] = test system: foxtail, giant; assay: Test A postemergence; type: in vivo, Setaria faberii
Method in brief: as §1

[9] = test system: wheat; assay: Test A postemergence; type: in vivo, Triticum aestivum
Method in brief: as §1

[10] = test system: rice; assay: Test B flood; type: in vivo, Oryza sativa; conditions: 250 g ai/ha, visual rating on 0 to 100 scale (0 no effect, 100 complete control), 13 to 15 days
Method in brief: (§2)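 Two-leaf-stage plants, pots flooded (3 cm above soil) and treated through the water, which stayed at that depth. After 13–15 days in greenhouse conditions, visual assessment versus controls: 0 is no effect, 100 complete control, dash means no result.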

[11] = test system: sedge, umbrella; assay: Test B flood; type: in vivo, Cyperus difformis; conditions: 250 g ai/ha, visual rating on 0 to 100 scale (0 no effect, 100 complete control), 13 to 15 days
Method in brief: as §2

[12] = test system: ducksalad; assay: Test B flood; type: in vivo, Heteranthera limosa; conditions: 250 g ai/ha, visual rating on 0 to 100 scale (0 no effect, 100 complete control), 13 to 15 days
Method in brief: as §2

[13] = test system: morningglory; assay: Test C preemergence; type: in vivo, Ipomoea coccinea; conditions: for Plant response rating (scale of 0 to 100), Morningglory: Preemergence, 250 g ai/ha; for Morningglory plant response rating / Plant response rating, Morningglory: preemergence; for Plant response rating, Morningglory: scale 0 to 100, 0 = no effect, 100 = complete control
Method in brief: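 Pre- and postemergence greenhouse screen; vehicle was a non-phytotoxic solvent mix with surfactant. Preemergence: treatment applied right after sowing into loam and sand. Postemergence: treated at 1–4 leaves. Visual rating at 13–15 days, 100 = complete control.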

[14] = test system: nutsedge, yellow; assay: Test C preemergence; type: in vivo, Cyperus esculentus; conditions: for Plant response rating (scale of 0 to 100), Nutsedge, Yellow: Preemergence, 250 g ai/ha; for Nutsedge, Yellow plant response rating / Plant response rating, Nutsedge, Yellow: preemergence; for Plant response rating, Nutsedge, Yellow: scale 0 to 100, 0 = no effect, 100 = complete control
From the text: (§3) Seeds of plant species selected from blackgrass (Alopecurus myosuroides), ryegrass, Italian (Italian ryegrass, Lolium multiflorum), wheat (winter wheat, Triticum aestivum), galium (catchweed bedstraw, Galium aparine), corn (Zea mays), crabgrass, large (large crabgrass, Digitaria sanguinalis), foxtail, giant (giant foxtail, Setaria faberii), johnsongrass (Sorghum halepense), lambsquarters (Chenopodium album), morningglory (Ipomoea coccinea), nutsedge, yellow (yellow nutsedge, Cyperus esculentus), pigweed (redroot pigweed, Amaranthus retroflexus), ragweed (common ragweed, Ambrosia elation), soybean (Glycine max), barnyardgrass (Echinochloa crus-galli), oilseed rape (Brassica napus), waterhemp (common waterhemp, Amaranthus rudis), oat, wild (wild oat, Avena fatua), kochia (Kochia scoparia), Surinam grass (Brachiaria decumbens), foxtail, green (green foxtail, Setaria viridis), goosegrass (Eleusine indica), bromegrass, downy (downy bromegrass, Bromus tectorum), nightshade (eastern black nightshade, Solanum ptycanthum), cocklebur (common cocklebur, Xanthium strumarium), cupgrass, woolly (woolly cupgrass, Eriochloa villosa), bermudagrass (Cynodon dactylon), sunflower, (common oilseed sunflower, Helianthus annuus), Russian thistle (Salsola kali), and velvetleaf (Abutilon theophrasti) were planted into a blend of loam soil and sand and treated preemergence with test chemicals formulated in a non-phytotoxic solvent mixture which included a surfactant.
(§4) At the same time, plants selected from these crop and weed species and also chickweed (common chickweed, Stellaria media), canarygrass (littleseed canarygrass, Phalaris minor), and deadnettle (henbit deadnettle, Lamium amplexicaule), were planted in pots containing Redi-Earth® planting medium (Scotts Company, 14111 Scottslawn Road, Marysville, Ohio 43041) comprising spaghnum peat moss, vermiculite, wetting agent and starter nutrients and treated with postemergence applications of test chemicals formulated in the same manner. Plants ranged in height from 2 to 18 cm (1- to 4-leaf stage) for postemergence treatments. Treated plants and controls were maintained in a greenhouse for 13 to 15 days, after which time all species were compared to controls and visually evaluated. Plant response ratings, summarized in Table C, are based on a scale of 0 to 100 where 0 is no effect and 100 is complete control. A dash (-) response means no test result.

[15] = test system: ragweed; assay: Test C preemergence; type: in vivo, Ambrosia elation; conditions: for Plant response rating (scale of 0 to 100), Ragweed: Preemergence, 250 g ai/ha; for Ragweed plant response rating / Plant response rating, Ragweed: preemergence; for Plant response rating, Ragweed: scale 0 to 100, 0 = no effect, 100 = complete control
From the text: as §3, §4

[16] = 125 g ai/ha, visual injury, 0 to 100 scale, approx. 10 days
[17] = 500 g ai/ha, visual injury after approx. 10 days, 0 to 100 scale (0 no effect, 100 complete control)
[18] = Postemergence, 500 g ai/ha, visual rating after approx. 10 days, 0 to 100 scale (0 no effect, 100 complete control)
[19] = postemergence, 125 g ai/ha, about 10 days, visual rating on 0 to 100 scale (0 no effect, 100 complete control)
[20] = 31 g ai/ha, visual rating, scale 0 to 100 (0 no effect, 100 complete control), 13 to 15 days
[21] = 125 g ai/ha, scale 0 to 100, 0 is no effect, 100 is complete control
[22] = Postemergence, 500 g ai/ha, 0 to 100 scale (0 no effect, 100 complete control)
[23] = 62 g ai/ha, scale 0 to 100 (0 no effect, 100 complete control), 13 to 15 days

SMILES: CCCc1cc(C(=O)NCC)nn1Cc1ccnc(C(F)(F)F)c1 [Compound 95]
- Crabgrass, Large plant response rating [1, 16]: 100
- Crabgrass, Large plant response rating [1, 17]: 100
- Foxtail, Giant plant response rating [2, 16]: 100
- Foxtail, Giant plant response rating [2, 17]: 100
- Pigweed plant response rating [3, 16]: 100
- Pigweed plant response rating [3, 17]: 100
- Velvetleaf plant response rating [4, 16]: 90
- Velvetleaf plant response rating [4, 17]: 100
- Wheat plant response rating [5, 16]: 70
- Wheat plant response rating [5, 17]: 100
- Corn plant response rating [6, 16]: 50
- Corn plant response rating [6, 17]: 90
- Barnyardgrass plant response rating [7, 18]: 100
- Barnyardgrass plant response rating [7, 19]: 90
- Foxtail, Giant plant response rating [8, 18]: 100
- Foxtail, Giant plant response rating [8, 19]: 100
- Wheat plant response rating [9, 18]: 90
- Wheat plant response rating [9, 19]: 80
- Plant response rating, Rice [10]: 20
- Plant response rating, Sedge, Umbrella [11]: 75
- Plant response rating, Ducksalad [12]: 85
- Plant response rating (scale of 0 to 100), Morningglory [13]: 100
- Morningglory plant response rating [13, 20]: 100
- Plant response rating, Morningglory ([13]; 62 g ai/ha, 13 to 15 days): 100
- Morningglory plant response rating [13, 21]: 100
- Plant response rating (scale of 0 to 100), Nutsedge, Yellow [14]: 90
- Nutsedge, Yellow plant response rating [14, 20]: 50
- Plant response rating, Nutsedge, Yellow ([14]; 62 g ai/ha, 13 to 15 days): 80
- Nutsedge, Yellow plant response rating [14, 21]: 85
- Plant response rating (scale of 0 to 100), Ragweed [15]: 100
- Ragweed plant response rating [15, 20]: 80
- Plant response rating, Ragweed ([15]; 62 g ai/ha, 13 to 15 days): 95
- Ragweed plant response rating [15, 21]: 100

SMILES: CCc1cc(C(=O)NC2CC2)nn1Cc1ccnc(OC(F)F)c1 [Compound 98]
- Crabgrass, Large plant response rating [1, 16]: 100
- Crabgrass, Large plant response rating [1, 17]: 100
- Foxtail, Giant plant response rating [2, 16]: 100
- Foxtail, Giant plant response rating [2, 17]: 100
- Pigweed plant response rating [3, 16]: 100
- Pigweed plant response rating [3, 17]: 100
- Velvetleaf plant response rating [4, 16]: 100
- Velvetleaf plant response rating [4, 17]: 100
- Wheat plant response rating [5, 16]: 30
- Wheat plant response rating [5, 17]: 90
- Corn plant response rating [6, 16]: 70
- Corn plant response rating [6, 17]: 80
- Barnyardgrass plant response rating [7, 18]: 90
- Barnyardgrass plant response rating [7, 19]: 90
- Foxtail, Giant plant response rating [8, 18]: 90
- Foxtail, Giant plant response rating [8, 19]: 90
- Wheat plant response rating [9, 18]: 80
- Wheat plant response rating [9, 19]: 70
- Plant response rating, Rice [10]: 0
- Plant response rating, Sedge, Umbrella [11]: 80
- Plant response rating, Ducksalad [12]: 70
- Plant response rating (scale of 0 to 100), Morningglory [13]: 100
- Morningglory plant response rating [13, 20]: 45
- Plant response rating, Morningglory ([13]; 62 g ai/ha, 13 to 15 days): 95
- Morningglory plant response rating [13, 21]: 100
- Plant response rating (scale of 0 to 100), Nutsedge, Yellow [14]: 95
- Nutsedge, Yellow plant response rating [14, 20]: 30
- Plant response rating, Nutsedge, Yellow ([14]; 62 g ai/ha, 13 to 15 days): 75
- Plant response rating (scale of 0 to 100), Ragweed [15]: 100
- Ragweed plant response rating [15, 20]: 95
- Plant response rating, Ragweed ([15]; 62 g ai/ha, 13 to 15 days): 100
- Ragweed plant response rating [15, 21]: 100

SMILES: CCOc1cc(C(=O)NCC(F)(F)F)nn1Cc1ccnc(C(F)(F)F)c1 [Compound 104]
- Crabgrass, Large plant response rating [1, 16]: 100
- Crabgrass, Large plant response rating [1, 17]: 100
- Foxtail, Giant plant response rating [2, 16]: 100
- Foxtail, Giant plant response rating [2, 17]: 100
- Pigweed plant response rating [3, 16]: 100
- Pigweed plant response rating [3, 17]: 100
- Velvetleaf plant response rating [4, 16]: 100
- Velvetleaf plant response rating [4, 17]: 100
- Wheat plant response rating [5, 16]: 90
- Wheat plant response rating [5, 17]: 100
- Corn plant response rating [6, 16]: 60
- Corn plant response rating [6, 17]: 80
- Barnyardgrass plant response rating [7, 18]: 90
- Barnyardgrass plant response rating [7, 19]: 90
- Foxtail, Giant plant response rating [8, 18]: 90
- Foxtail, Giant plant response rating [8, 19]: 90
- Wheat plant response rating [9, 18]: 70
- Wheat plant response rating [9, 19]: 70
- Plant response rating, Rice [10]: 40
- Plant response rating, Sedge, Umbrella [11]: 0
- Plant response rating, Ducksalad [12]: 0
- Plant response rating (scale of 0 to 100), Morningglory [13]: 100
- Morningglory plant response rating [13, 20]: 100
- Plant response rating, Morningglory ([13]; 62 g ai/ha, 13 to 15 days): 100
- Morningglory plant response rating [13, 21]: 100
- Plant response rating (scale of 0 to 100), Nutsedge, Yellow [14]: 98
- Nutsedge, Yellow plant response rating [14, 20]: 70
- Plant response rating, Nutsedge, Yellow ([14]; 62 g ai/ha, 13 to 15 days): 95
- Nutsedge, Yellow plant response rating [14, 21]: 98
- Plant response rating (scale of 0 to 100), Ragweed [15]: 100
- Ragweed plant response rating [15, 20]: 98
- Plant response rating, Ragweed ([15]; 62 g ai/ha, 13 to 15 days): 100
- Ragweed plant response rating [15, 21]: 100

SMILES: CCOc1cc(C(=O)NC2CC2)nn1Cc1ccnc(OC(F)F)c1 [Compound 133]
- Foxtail, Giant plant response rating [2, 16]: 100
- Foxtail, Giant plant response rating [2, 17]: 100
- Pigweed plant response rating [3, 16]: 100
- Pigweed plant response rating [3, 17]: 100
- Barnyardgrass plant response rating [7, 22]: 100
- Barnyardgrass plant response rating [7, 19]: 90
- Foxtail, Giant plant response rating [8, 22]: 100
- Foxtail, Giant plant response rating [8, 19]: 100
- Wheat plant response rating [9, 22]: 90
- Wheat plant response rating [9, 19]: 40
- Plant response rating, Rice [10]: 20
- Plant response rating, Sedge, Umbrella [11]: 90
- Plant response rating, Ducksalad [12]: 90
- Plant response rating (scale of 0 to 100), Morningglory [13]: 100
- Morningglory plant response rating [13, 20]: 75
- Morningglory plant response rating [13, 23]: 100
- Plant response rating, Morningglory ([13]; 125 g ai/ha, 13 to 15 days): 100
- Plant response rating (scale of 0 to 100), Nutsedge, Yellow [14]: 85
- Nutsedge, Yellow plant response rating [14, 20]: 20
- Nutsedge, Yellow plant response rating [14, 23]: 25
- Plant response rating, Nutsedge, Yellow ([14]; 125 g ai/ha, 13 to 15 days): 70
- Plant response rating (scale of 0 to 100), Ragweed [15]: 100
- Ragweed plant response rating [15, 20]: 10
- Ragweed plant response rating [15, 23]: 60
- Plant response rating, Ragweed ([15]; 125 g ai/ha, 13 to 15 days): 100

Source: patent publication US20150105252A1, “SUBSTITUTED PYRAZOLES AS HERBICIDES” (E I DU PONT DE NEMOURS AND COMPANY, priority 2013, published 2015)
